Source: patent US9744171B2, “Positive allosteric modulators for melanocortin receptors” (Vanderbilt University, priority 2012, dated 2017)

Assay: High fat diet-induced weight gain in mice, osmotic minipump treatment
Format: in vivo
Description: FIG. 6 provides a bar graph showing a reduction in high fat diet-induced weight gain in mice by treatment with VU0055768. Wild type 12 week old male C57BL/6J mice were placed on a high fat diet for 5 days. Mice were then implanted subcutaneously with Alzet csmotic minipumps filled with vehicle (25% DMSO, 25% saline, 50% EtOH; n=6) or VU0055768 (25% compound in DMSO, 25% saline, 50% EtOH, n=5) so as to deliver 2.5 mg/kg/day of VU0055768. Mice were maintained on ad libitum access to water and high fat chow, and body weights were measured at the end of an additional 9 days. Bars indicate the mean and standard error of the data, and show a greater than 50% reduction in weight gain as a result of treatment with VU0055768
Eleven 12 weeks old Wt C57 mice were placed on high fat diet for 5 days. Osmotic pumps were filled with vehicle (25% DMSO, 25% saline, 50% EtOH) or VU0055768 (25% compound in DMSO, 25% saline, 50% EtOH) as to deliver 2.5 mg/kg/day, and were then inserted subcutaneously (6 vehicle, 5 compound) into the mice. The mice were fed ad-libidum with high fat diet. Mouse and food weight was measured daily. Statistical analysis of the results was t-test.

## NCCc1c(-c2ccccc2)n(-c2ccccc2)c2ccccc12 [VU0055768]
C57BL/6J mice on high fat diet, 2.5 mg/kg/day subcutaneous osmotic minipump, body weights after additional 9 days, vs vehicle
  reduction in weight gain: greater than 50%
Wt C57 mice on high fat diet, 2.5 mg/kg/day subcutaneous osmotic pump, t-test vs vehicle
  weight gain: significantly reduced weight gain
